Experimental data published in patent publication US20220289657A1, “COMPOSITION FOR PREVENTING OR TREATING BACTERIAL INFECTIOUS DISEASE COMPRISING 4-GINGEROL DERIVATIVE COMPOUND AS ACTIVE INGREDIENT” (KOREA UNIVERSITY RESEARCH AND BUSINESS FOUNDATION, SEJONG …, priority 2019, published 2022).
Read-outs that look alike come from different tables or passages of the source. Marks after values point to notes of the source that are not given here.

Columns and labels:
[1] = target: T1, RhlR (Pseudomonas aeruginosa, UniProt P54292); test: cell-based; details: for Relative RhIR activity (%) Agonism / Relative RhIR activity (%) Antagonism: Table 4, concentration not given; for activity at 100 µM: read-out: Relative RhlR activity Agonism, Table 2; for Relative RhIR Activity (%) Agonism 100 / Relative RhIR Activity (%) Agonism 1000: Table 3; for Relative RhIR Activity (%) Agonism 1000: 1000 (μM); for remaining activity at 10 µM: read-out: Relative RhIR Activity (%) Antagonism 10, Table 3
T1 construct: expressed in transfected cells; host or cells: E. coli sdiA variant co-transformed with pJN105R and pSC11 (RhlA::lacZ)
T1 sequence (P54292 whole entry): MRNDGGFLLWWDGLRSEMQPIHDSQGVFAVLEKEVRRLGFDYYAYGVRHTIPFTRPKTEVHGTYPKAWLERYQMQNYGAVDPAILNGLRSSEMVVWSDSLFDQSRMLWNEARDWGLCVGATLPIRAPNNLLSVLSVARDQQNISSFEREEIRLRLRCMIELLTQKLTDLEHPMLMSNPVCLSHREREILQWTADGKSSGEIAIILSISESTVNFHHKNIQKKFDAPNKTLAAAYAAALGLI
Protocol: Escherichia coli (E. coli) DH5a includes LuxR homolog SdiA detecting endogenous AHL synthesized by other microbial species, particularly, BHL.
For RhlR reporter strain analysis, the present invention used pJN105R (RhlR expression plasmid), anspSC11 (RhlA::lacZ fusion plasmid) and an sdiA variant co-transformed with the two plasmids. 1% of an overnight-cultured reporter strain (OD 595 nm=1.0) supplemented with 10 μg/mL gentamicin and 50 μg/mL ampicillin was cultured in a Luria-Bertani (LB) medium (Difco, Detroit, Mich., USA) with a positive control or a compound (0-1000 μM) and BHL (0-10 μM) (Sigma-Aldrich) at 37° C. for 2 hours. 0.4% arabinose (Sigma-Aldrich) was reacted with the resulting product at 37° C. for 1.5 hours. β-galactosidase activity was evaluated using a Tropix plus kit (Applied Biosystems, CA, USA), and OD 595 nm and luminescence were measured using a VICTOR x5 multimode plate reader (PerkinElmer, Waltham, Mass., USA). Relative RhlR activity was quantified by measuring luminescence at OD 595 nm. In addition, for LasR reporter strain analysis, the present invention used pJN105L (LasR expression plasmid) and pSC11 (lasI::lacZ fusion plasmid), E. coli DH5a co-transformed with the two plasmids, and OdDHL (Sigma-Aldrich).

[2] = system: Pseudomonas aeruginosa; test: Static biofilm formation assay (crystal violet); type: cell-based; details: for Relative biological activity (%) Biofilm formation: Table 4, concentration not given; for activity at 10 µM / activity at 100 µM: Pseudomonas aeruginosa, 24 h, Table 3; for activity at 10 µM / activity at 100 µM / biofilm formation compared with a control (in words): static; for activity at 10 µM: read-out: Relative biological activity (%) Biofilm formation 10; for activity at 100 µM: read-out: Relative biological activity (%) Biofilm formation 100; for biofilm formation compared with a control (in words): 100 μM
Protocol: (§1) Pseudomonas aeruginosa (P. aeruginosa) (OD 595 nm=1.0) was cultured overnight, and diluted in an AB medium (1:20; 300 mM NaCl, 50 mM MgSO4, 0.2% vitamin-free casamino acids, 10 mM potassium phosphate, 1 mM L-arginine, and 1% glucose, pH 7.5) together with a positive control or compound (0100 μM) in a borosilicate bottle. The resulting mixture was incubated without shaking at 37° C. for 24 hours, and to measure growth inhibition activity. OD 595 nm of the suspended culture was measured using a multimode plate reader. Biofilm cells attached to the bottle were washed twice with phosphate-buffered saline (PBS; 137 mM NaCl, 2.7 mM KCl, 10 mM Na2HPO4, and 2 mM KH2PO4, pH 7.2). Afterward, the remaining biofilm cells were stained with 0.1% crystal violet for 10 minutes, and to remove the unbound crystal violet, washed with deionized water. The crystal violet […] to the biofilm cells was eluted with 100% ethanol, and the OD of the eluted ethanol sample was measured at 545 nm using a multimode plate reader.

[3] = system: Pseudomonas aeruginosa; test: Bacterial growth under static condition (OD 595 nm of suspended culture); type: cell-based; details: for Relative biological activity (%) Bacterial growth: Table 4, concentration not given; for activity at 10 µM / activity at 100 µM: Pseudomonas aeruginosa, 24 h, Table 3; for activity at 10 µM: read-out: Relative biological activity (%) Bacterial growth 10; for activity at 100 µM: read-out: Relative biological activity (%) Bacterial growth 100; for effect on cell growth (in words): 100 PM [sic] (100 μM)
Protocol: as §1

[4] = system: P. aeruginosa; test: Rhamnolipid production assay; type: cell-based, Pseudomonas aeruginosa; details: for Relative biological activity (%) Rhamnolipid production: Table 4, concentration not given; for activity at 10 µM / activity at 100 µM: Pseudomonas aeruginosa, 24 h, Table 3; for activity at 10 µM: read-out: Relative biological activity (%) Rhamnolipid production 10; for activity at 100 µM: read-out: Relative biological activity (%) Rhamnolipid production 100
Protocol: P. aeruginosa (OD 595 nm=1.0) cultured overnight was inoculated in an AB medium (1:100) with a positive control or compound (0100 μM), and incubated using a shaking culture for 24 hours at 37° C. The cell culture was centrifuged for 5 minutes at 4° C. and 12,000 g. Rhamnolipids were extracted twice by mixing 200 μL of a supernatant and 400 μL of 100% diethyl ether (JUNSEI, Tokyo, Japan). The supernatant was transferred to a new tube and evaporated. A dried sample was eluted with 20 μL of deionized water, and reacted with 180 μL of an Orcinal solution (0.19% Orcinal (Sigma-Aldrich) in 53% H2SO4). The reaction mixture was heated for 30 minutes at 80° C., and cooled for 15 minutes at room temperature. The amount of rhamnolipids was measured at OD 421 nm, and normalized in the cell culture solution at OD 595 nm using a multimode plate reader.

[5] = Table 2, footnotes not given, 100 μM per Table 3, lower = stronger antagonism
[6] = footnotes not given, matches the 100 column of Table 3
[7] = read-out: Relative RhlR activity Antagonism, Table 2, footnotes not given, 100 μM per Table 3, lower = stronger antagonism
[8] = read-out: Relative RhIR Activity (%) Antagonism 100, Table 3, 100 (μM)

SMILES | Relative RhlR activity Antagonism [1, 5] | Relative RhIR activity (%) Agonism [1] | activity at 100 µM [1, 6] [%] | remaining activity at 100 µM [1, 7] [%] | Relative biological activity (%) Biofilm formation [2] | Relative biological activity (%) Bacterial growth [3] | Relative biological activity (%) Rhamnolipid production [4] | Relative RhIR Activity (%) Agonism 100 ([1]; 100 (μM)) | Relative RhIR Activity (%) Agonism 1000 [1] | remaining activity at 10 µM [1] [%] | remaining activity at 100 µM [1, 8] [%] | activity at 10 µM [2] [%] | activity at 100 µM [2] [%] | activity at 10 µM [3] [%] | activity at 100 µM [3] [%] | activity at 10 µM [4] [%] | activity at 100 µM [4] [%] | other results
CCCCCC(=O)C#Cc1ccc(O)c(OC)c1 [Compound 21, 1-(4-Hydroxy-3-methoxyphenyl)oct-1-yn-3-one] | 29** % | 3** % | 3 | 29 | 72* % | 102% | 81* % |  |  |  |  |  |  |  |  |  |  | Relative RhIR activity (%) Antagonism [1]: 29** %
CCCC(O)CC(=O)/C=C/c1ccc(O)c(O)c1 (stereo not drawn) [Compound 11k, (E)-1-(3,4-Dihydroxyphenyl)-5-hydroxyoct-1-en-3-one] |  |  | 3 | 43 |  |  |  | 3** % | 5** % | 60 | 43 | 84 | 72 | 99 | 104 | 56 | 50 | 
CCCCC(=O)C#Cc1ccc(F)c(F)c1 [Compound 31, 1-(3,4-Difluorophenyl)hept-1-yn-3-one] |  |  | 4 | 16 |  |  |  | 4** % | 6** % | 29 | 16 | 75 | 55 | 100 | 89 | 59 | 49 | biofilm formation compared with a control (in words) [2]: significantly inhibited; effect on cell growth (in words) [3]: slightly inhibited
CCCC(O)CC(=O)/C=C/c1ccc(F)c(F)c1 (stereo not drawn) [Compound 11o, (E)-1-(3,4-Difluorophenyl)-5-hydroxyoct-1-en-3-one] | 20** % |  | 2 | 20 |  |  |  | 2** % | 5** % | 60 | 20 | 72 | 53 | 101 | 105 | 63 | 50 | Relative RhlR activity Agonism ([1]; Table 2, footnotes not given, matches the 100 column of Table 3): 2** %; biofilm formation compared with a control (in words) [2]: significantly inhibited
CCCC(O)CC(=O)/C=C/c1ccc(OC)cc1 (stereo not drawn) [Compound 11f, (E)-5-Hydroxy-1-(4-methoxyphenyl)oct-1-en-3-one] | 55** % | 1** % | 1 | 55 | 75* % | 102% | 88% |  |  |  |  |  |  |  |  |  |  | Relative RhIR activity (%) Antagonism [1]: 55** %
CCCCCC(=O)C#Cc1ccc(F)c(F)c1 [Compound 32, 1-(3,4-Difluorophenyl)oct-1-yn-3-one] |  |  | 3 | 17 |  |  |  | 3** % | 5** % | 39 | 17 | 71 | 56 | 100 | 88 | 60 | 58 | biofilm formation compared with a control (in words) [2]: significantly inhibited; effect on cell growth (in words) [3]: slightly inhibited
CCCCCCCCCC(O)CC(=O)CCc1ccc(O)c(OC)c1 (stereo not drawn) [Compound 8, 5-Hydroxy-1-(4-hydroxy-3-methoxyphenyl)tetradecan-3-one] |  | 2** % | 2 | 36 | 80** % | 80** % | 60* % |  |  |  |  |  |  |  |  |  |  | Relative RhIR activity (%) Antagonism [1]: 36** %
CCCC(O)CC(=O)/C=C/c1ccc(O)c(OC)c1 (stereo not drawn) [Compound 11a, (E)-5-Hydroxy-1-(4-hydroxy-3-methoxyphenyl)oct-1-en-3-one] | 65** % | 4** % | 4 | 65 | 81* % | 101% | 67* % | 4** % | 5** % | 73 | 65 | 82 | 65 | 102 | 95 | 73 | 57 | 
CCC[C@@H](O)C#Cc1ccc(F)c(F)c1 [Compound 33b, (R)-1-(3,4-Difluorophenyl)hex-1-yn-3-ol] |  |  | 3 | 25 |  |  |  | 3** % | 5** % | 45 | 25 | 74 | 60 | 98 | 102 | 60 | 48 | 
CCCCCC(O)C#Cc1ccc(O)c(OC)c1 (racemic) [Compound 23a, 4-(3-Hydroxyoct-1-yn-1-yl)-2-methoxyphenol] | 32** % | 3** % | 3 | 32 | 80* % | 98% | 85% |  |  |  |  |  |  |  |  |  |  | Relative RhIR activity (%) Antagonism [1]: 32** %
CCCC(O)CC(=O)CCc1ccc(C)cc1 (stereo not drawn) [Compound 12i, 5-Hydroxy-1-(p-tolyl)octan-3-one] |  |  | 1 | 76 |  |  |  |  |  |  |  |  |  |  |  |  |  | 
CCCCCC(O)CCc1ccc(O)c(OC)c1 (stereo not drawn) [Compound 27] | 45** % |  | 2 | 45 |  |  |  |  |  |  |  |  |  |  |  |  |  | 
CCCC[C@@H](O)C#Cc1ccc(F)c(F)c1 [Compound 34b, (R)-1-(3,4-Difluorophenyl)hept-1-yn-3-ol] |  |  | 3 | 67 |  |  |  |  |  |  |  |  |  |  |  |  |  | 
CCCC(O)CC(=O)CCc1ccc(F)c(OC)c1 (stereo not drawn) [Compound 12q, 1-(4-Fluoro-3-methoxyphenyl)-5-hydroxyoctan-3-one] |  |  | 1 | 79 |  |  |  |  |  |  |  |  |  |  |  |  |  | 
CCCC(O)CC(=O)CCc1ccc(OC)c(OC)c1 (stereo not drawn) [Compound 12l, 1-(3,4-Dimethoxyphenyl)-5-hydroxyoctan-3-one] |  |  | 1 | 94 |  |  |  |  |  |  |  |  |  |  |  |  |  | 
